Results from patent publication US7273848B2, “Apolipoprotein A-I agonists and their use to treat dyslipidemic disorders” (priority 1997, dated 2007).
Non-standard residues stand in square brackets, D forms with d. Residues, ends and D or L forms follow the SMILES beside them. No end group written: not given here. Orn = NCCC[C@H](N)C(=O)O; Aib = CC(C)(N)C(=O)O

Biological target: T1, LCAT (purified from human plasma) (Homo sapiens, UniProt P04180)
T1 construct: from tissue; host or cells: human plasma
T1 sequence (P04180 25-440): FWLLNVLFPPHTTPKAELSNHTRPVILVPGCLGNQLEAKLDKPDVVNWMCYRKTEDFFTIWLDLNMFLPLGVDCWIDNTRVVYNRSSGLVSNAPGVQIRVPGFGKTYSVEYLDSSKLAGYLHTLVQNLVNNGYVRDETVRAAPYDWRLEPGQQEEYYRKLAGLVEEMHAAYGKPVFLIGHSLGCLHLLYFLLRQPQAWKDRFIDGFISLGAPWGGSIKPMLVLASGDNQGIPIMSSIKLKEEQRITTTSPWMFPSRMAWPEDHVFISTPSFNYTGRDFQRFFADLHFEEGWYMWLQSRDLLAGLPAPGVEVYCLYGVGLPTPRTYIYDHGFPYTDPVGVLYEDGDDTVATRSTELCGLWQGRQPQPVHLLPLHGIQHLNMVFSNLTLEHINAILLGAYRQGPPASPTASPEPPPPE
Test: LCAT activation assay
Type: biochemical
Details: LCAT activation as compared with native human ApoA-I (= 100%), equivalent masses
How it was run: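 Substrate SUVs of EPC or POPC with 14C-cholesterol (20:1 molar ratio), in 10 mM Tris, 0.14 M NaCl, 1 mM EDTA, pH 7.4, were preincubated with peptide or equal mass of plasma ApoA-I. Reaction started with human plasma LCAT; activation was measured as cholesterol-to-ester conversion relative to ApoA-I (100%).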

| Compound | ACTIVITY (%) LCAT |
| --- | --- |
| CC(C)C[C@H](NC(=O)[C@H](CCCCN)NC(=O)[C@H](CCC(N)=O)NC(=O)[C@H](CCCCN)NC(=O)[C@H](CC(C)C)NC(=O)C(C)(C)NC(=O)[C@H](CCC(=O)O)NC(=O)[C@H](CC(C)C)NC(=O)[C@H](CCC(=O)O)NC(=O)[C@H](CCC(=O)O)NC(=O)[C@H](CC(N)=O)NC(=O)[C@H](CC(C)C)NC(=O)[C@H](CCCCN)NC(=O)[C@H](CCC(=O)O)NC(=O)[C@H](CCCNC(=N)N)NC(=O)[C@H](Cc1ccccc1)NC(=O)[C@H](CCC(=O)O)NC(=O)[C@H](CC(=O)O)NC(=O)[C@H](CC(C)C)NC(=O)[C@@H](NC(=O)[C@@H]1CCCN1)C(C)C)C(=O)N[C@@H](CCCCN)C(=O)O [compound 120, PVLDEFREKLNEELEXLKQKLK] (H-PVLDEFREKLNEELE[Aib]LKQKLK-OH) | 0% |
| CC(C)C[C@H](NC(=O)[C@H](C)NC(=O)[C@H](CC(=O)O)NC(=O)[C@H](CC(C)C)NC(=O)[C@H](CC(C)C)NC(=O)[C@H](CCCN)NC(=O)[C@H](CCC(=O)O)NC(=O)[C@H](CC(C)C)NC(=O)[C@H](CC(C)C)NC(=O)[C@H](CC(N)=O)NC(=O)[C@H](CCC(=O)O)NC(=O)[C@H](Cc1ccccc1)NC(=O)[C@H](CC(C)C)NC(=O)[C@H](CCC(=O)O)NC(=O)[C@H](CC(C)C)NC(=O)[C@@H](NC(=O)[C@@H]1CCCN1)C(C)C)C(=O)N[C@@H](CCC(N)=O)C(=O)N[C@@H](CCCN)C(=O)N[C@@H](CCCN)C(=O)N[C@@H](CC(C)C)C(=O)N[C@@H](CCCN)C(=O)O [compound 170, PVLELFENLLEOLLDALQOOLO] (H-PVLELFENLLE[Orn]LLDALQ[Orn][Orn]L[Orn]-OH) | 17% |
| CC(C)C[C@@H](NC(=O)[C@@H](C)NC(=O)[C@@H](CC(=O)O)NC(=O)[C@@H](CC(C)C)NC(=O)[C@@H](CC(C)C)NC(=O)[C@@H](CCCNC(=N)N)NC(=O)[C@@H](CCC(=O)O)NC(=O)[C@@H](CC(C)C)NC(=O)[C@@H](CC(C)C)NC(=O)[C@@H](CC(N)=O)NC(=O)[C@@H](CCC(=O)O)NC(=O)[C@@H](Cc1ccccc1)NC(=O)[C@@H](CC(C)C)NC(=O)[C@@H](CCC(=O)O)NC(=O)[C@@H](CC(C)C)NC(=O)[C@H](NC(=O)[C@H]1CCCN1)C(C)C)C(=O)N[C@H](CCC(N)=O)C(=O)N[C@H](CCCCN)C(=O)N[C@H](CCCCN)C(=O)N[C@H](CC(C)C)C(=O)N[C@H](CCCCN)C(=O)O [compound 174, pvlelfenllerlldalqkklk] (H-[dP][dV][dL][dE][dL][dF][dE][dN][dL][dL][dE][dR][dL][dL][dD][dA][dL][dQ][dK][dK][dL][dK]-OH) | 13% |
| CC(=O)N1CCC[C@@H]1C(=O)N[C@H](C(=O)N[C@@H](CC(C)C)C(=O)N[C@@H](CC(=O)O)C(=O)N[C@@H](CC(C)C)C(=O)N[C@@H](Cc1ccccc1)C(=O)N[C@@H](CCCNC(=N)N)C(=O)N[C@@H](CCC(=O)O)C(=O)N[C@@H](CC(C)C)C(=O)N[C@@H](CC(C)C)C(=O)N[C@@H](CCC(=O)O)C(=O)N[C@@H](CCC(=O)O)C(=O)N[C@@H](CC(C)C)C(=O)N[C@@H](CCCCN)C(=O)N[C@@H](CCC(N)=O)C(=O)N[C@@H](CCCCN)C(=O)N[C@@H](CC(C)C)C(=O)N[C@@H](CCCCN)C(N)=O)C(C)C [compound 214] (Ac-[dP]VLDLFRELLEELKQKLK-NH2) | 39% |
| AVLDLFRELLNELLEALKQKLK [compound 29] | 39% |
| AVLELFENLLERLLDALQKKLK [peptide 153] | 49% |
| Ac-AVLDLFRELLEELKQKLK-NH2 [compound 203] | 66% |
| Ac-DVLDLFRELLEELKQKLK-NH2 [compound 221] | 12% |
| Ac-GVLDLFRELLEELKQKLK-NH2 [compound 198] | 80% |
| Ac-NVLDLFRELLEELKQKLK-NH2 [compound 200] | 75% |
| Ac-PLLDLFKELLEELKQKLK-NH2 [compound 201] | 74% |
| Ac-PLLELLKELLEELKQKLK-NH2 [compound 206] | 57% |
| Ac-PVLDFFRELLEELKQKLK-NH2 [compound 204] | 63% |
| Ac-PVLDLLRELLEELKQKLK-NH2 [compound 191] | 100% |
| Ac-PVLELFKELLEELKQKLK-NH2 [compound 195] | 87% |
| Ac-PVLELLKELLEELKQKLK-NH2 [compound 207] | 50% |
| GVLDLFRELLNEGLEALKQKLK [compound 13] | 67% |
| LVLDLFRELLNELLEALKQKLK [compound 59] | 17% |
| PLLELFENLLEKLLDALQKKLK [compound 183] | 6% |
| PLLELFENLLERLLDALQKKLK [peptide 150] | 57% |
| PVFELFENLLERLLDALQKKLK [peptide 152] | 50% |
| PVLDEFREKLNELLEALKQKLK [compound 84] | 7% |
| PVLDEFRELLNEELEALKQKLK [compound 103] | 1% |
| PVLDEFRELLNELLEALKQKLK [compound 79] | 9% |

Results, then the compound that gave them:

| ACTIVITY (%) LCAT | Compound |
| --- | --- |
| 3% | CC(C)C[C@H](NC(=O)[C@H](C)NC(=O)[C@H](CC(=O)O)NC(=O)[C@H](CC(C)C)NC(=O)[C@H](CC(C)C)NC(=O)[C@H](CCCNC(=N)N)NC(=O)[C@H](CCC(=O)O)NC(=O)[C@H](CC(C)C)NC(=O)[C@H](CC(C)C)NC(=O)[C@H](CC(N)=O)NC(=O)[C@H](CCC(=O)O)NC(=O)[C@H](Cc1ccccc1)NC(=O)[C@H](CC(C)C)NC(=O)[C@H](CCC(=O)O)NC(=O)[C@H](CC(C)C)NC(=O)[C@@H](NC(=O)[C@@H]1CCCN1)C(C)C)C(=O)N[C@@H](CCC(N)=O)C(=O)N[C@@H](CCCN)C(=O)N[C@@H](CCCN)C(=O)N[C@@H](CC(C)C)C(=O)N[C@@H](CCCN)C(=O)O [compound 185, PVLELFENLLERLLDALQOOLO] (H-PVLELFENLLERLLDALQ[Orn][Orn]L[Orn]-OH) |
| 45% | CC(=O)N1CCC[C@H]1C(=O)N[C@H](C(=O)N[C@@H](CC(C)C)C(=O)N[C@@H](CC(=O)O)C(=O)N[C@@H](CC(C)C)C(=O)N[C@@H](Cc1ccccc1)C(=O)N[C@@H](CCCNC(=N)N)C(=O)N[C@@H](CCC(=O)O)C(=O)N[C@@H](CC(C)C)C(=O)N[C@@H](CC(C)C)C(=O)N[C@@H](CCC(=O)O)C(=O)N[C@@H](CCC(=O)O)C(=O)N[C@@H](CC(C)C)C(=O)N[C@@H](CCCN)C(=O)N[C@@H](CCC(N)=O)C(=O)N[C@@H](CCCN)C(=O)N[C@@H](CC(C)C)C(=O)N[C@@H](CCCN)C(N)=O)C(C)C [compound 211, PVLDLFRELLEELOQOLO] (Ac-PVLDLFRELLEEL[Orn]Q[Orn]L[Orn]-NH2) |
| 43% | CC(=O)N1CCC[C@H]1C(=O)N[C@H](C(=O)N[C@@H](CC(C)C)C(=O)N[C@@H](CC(=O)O)C(=O)N[C@@H](CC(C)C)C(=O)N[C@@H](Cc1ccccc1)C(=O)N[C@@H](CCCN)C(=O)N[C@@H](CCC(=O)O)C(=O)N[C@@H](CC(C)C)C(=O)N[C@@H](CC(C)C)C(=O)N[C@@H](CCC(=O)O)C(=O)N[C@@H](CCC(=O)O)C(=O)N[C@@H](CC(C)C)C(=O)N[C@@H](CCCN)C(=O)N[C@@H](CCC(N)=O)C(=O)N[C@@H](CCCN)C(=O)N[C@@H](CC(C)C)C(=O)N[C@@H](CCCCN)C(N)=O)C(C)C [compound 212, PVLDLFOELLEELOQOLK] (Ac-PVLDLF[Orn]ELLEEL[Orn]Q[Orn]LK-NH2) |
| 11% | Ac-EWLEAFYKKVLEKLKELF-NH2 [compound 239, reference compound] |
| 42% | Ac-PALELFKDLLEEFRQRLK-NH2 [compound 213] |
| 70% | Ac-PALELFKDLLEELRQKLR-NH2 [compound 202] |
| 48% | Ac-PALELFKDLLEELRQRLK-NH2 [compound 208] |
| 0% | Ac-PVLDLFREGLEELKQKLK-NH2 [compound 228] |
| 0% | Ac-PVLDLFRELGEELKQKLK-NH2 [compound 227] |
| 0% | Ac-PVLDLFRELLEEGKQKLK-NH2 [compound 229] |
| 81% | Ac-PVLDLFRELLEELKNKLK-NH2 [compound 196] |
| 29% | Ac-PVLDLFRELLNELLQKLK-NH2 [compound 218] |
| 60% | Ac-PVLDLFREWLEELKQKLK-NH2 [compound 205] |
| 3% | DWFKAFYDKFFEKFKEFF [peptide 247, reference compound] |
| 8% | DWFKAFYDKVFEKFKEFF [peptide 241, reference compound] |
| 7% | GIKKFLGSIWKFIKAFVG [peptide 242, reference compound] |
| 58% | GVLDLFRELLNELLEALKQKLK [peptide 18] |
| 105% | GVLDLFRELLNELLEALKQKLKK [peptide 2] |
| 10% | GVLELFLNLLERLLDALQKKLK [compound 177] |
| 54% | PLLELFKELLQELLEALKQKLK [peptide 23] |
| 1% | PVLDAFRELAEALAQLKK [compound 225] |
| 1% | PVLDAFRELGEALLQLKK [compound 226] |
| 8% | PVLDAFRELLEALLQLKK [compound 222] |
| 0% | PVLDEFREKLNEELEALWQKLK [compound 121] |
| 0% | PVLDEFREKLNEELEWLKQKLK [compound 122] |

Same assay, conditions: LCAT activation as compared with native human ApoA-I (= 100%), equivalent masses; listed as N-acetylated, C-amidated peptide 18AM4

| ACTIVITY (%) LCAT | Compound |
| --- | --- |
| < 11% | Ac-EWLEAFYKKVLEKLKELF-NH2 [compound 239, reference compound] |
